We go through five compounds from US7816511B2, “Remedies for heart failure” (Asubio Pharma Co., Ltd., priority 2000, dated 2010).

One data set concerns OSF-2 mRNA. The data set can be described thus: Expression analysis of OSF-2 mRNA using MC3T3-E1 cells (real-time PCR). The note with it: 30 μM, 24 hours. The data set is classed as cell-based, murine. (In qPCR the cycle at which signal appears reflects the starting amount.)
For another data set, the system named is OSF-2 promoter. The data set can be described thus: Reporter assay using COS-1 cells with human OSF-2 reporter plasmid pGL3-hOSFgE (luciferase). The data set is classed as cell-based. The note with it: 24 hours after compound addition, pGL3-control (SV40 promoter) as control. The source says:
A region extending from about 2 kb upstream of the initiation codon to immediately before the initiation codon was amplified by PCR using human OSF-2 gene #2 obtained in Example 10-1 as a template and primers (12) 5′-[…]-3′ (SEQ ID NO: 25) and (13) 5′-[…]-3′ (SEQ ID NO: 26). Primer (13) was designed to insert a restriction enzyme XhoI recognition site into the 5′ end, and this amplified fragment was digested with restriction enzymes SpeI and XhoI to give a fragment of about 2 kb, which was then ligated to a vector fragment of pGL3-enhancer (Promega) digested with restriction enzymes NheI and XhoI located upstream of the luciferase gene using a ligation kit (TAKARA SHUZO CO., LTD.) to give pGL3-hOSFgE. The nucleotide sequence of the insert was determined according to the method of Example 1-5 to confirm that it was identical with the nucleotide sequence determined in Example 10-1.
COS-1 cells were plated on a 96-well plate at a density of 3×10^4 cells/well and the plate was incubated at 37° C. for 16-24 hours and then transiently transfected with OSF-2 reporter plasmid pGL3-hOSFgE shown in Example 10 using LipofectAMINE 2000 reagent (GIBCO), and after incubation for 24 hours at 37° C., the medium was replaced. […] Luciferase activity was assayed according to the protocol of a luciferase assay system (Promega) and detected with 1420 multilabel counter (Wallac). […]
(Reporter assays use an easily measured gene product as a stand-in for the process of interest.)

The subject of a further data set is Dahl-S rats. In words: Survival of Dahl-S heart failure model rats after antisense transfection into the heart. Format: in vivo, rat. The note with it: 30 weeks post transfection, Dahl-S rats on 8% salt diet. As to the method: HVJ-liposomes were prepared as described in Example 6.2 by adding 50 μl of HMG-1,-2 mixture (1 mg/ml, Wako Pure Chemical Industries) to 1.4 mg of a solution of the antisense nucleotides selected in Example 7 dissolved in BSS buffer. Sense nucleotides were also prepared in the same manner.
The HVJ-liposome/DNA solution was injected into the left ventricle of the heart (apical and lateral sites) of 13-weeks old Dahl-S rats (DIS/Eis, Eisai, male) raised on an 8% salt diet from the age of 8 weeks in an amount of 75 μl each at 4 sites (a total volume of 300 μl) using a 30-gauge needle (antisense group: 13 rats, sense group: 13 rats).

The subject of data set [1] is Myc-His-rOSF-2 fused protein. The data set can be described thus: Selection of antisense nucleotide sequences: ELISA of Myc-His-rOSF-2 fused protein in transfected COS-1 cells. Format: cell-based, rat. The source says: Five antisense nucleotide sequences shown as SEQ ID NOs: 12-16 were designed by selecting regions containing an initiation codon AUG but not containing three continuous guanines (triplet G) and incapable of forming a hairpin structure or self-annealing and synthesized by an outer contractor. All the antisense nucleotide sequences are phosphorothioate type.
The Myc-His-rOSF-2 fused protein expression vector pcDNA4/Myc-His/rOSF-2 described in Example 5 was introduced into COS-1 cells, and the antisense nucleotide sequences prepared in 1 above were introduced to screen antisense nucleotide sequences inhibiting the expression of Myc-His-rOSF 2 fused protein. The expression level of Myc-His-rOSF-2 fused protein was assayed by ELISA (Enzyme-Linked Immunosorbent Assay) using a Myc-specific monoclonal antibody (Invitrogen). Specifically, COS-1 cells were plated on a 96-well plate at a density of 2×10^4 cells/well. […]
The culture supernatant was immobilized to an EIA/RIA plate (Costar) by incubating 50 μl thereof at 37° C. for 1-2 hours, and washed twice with 200 μl of Dulbecco's phosphate-buffered saline containing 0.1% Tween (PBST). […] After incubation with 50 μl of TMB (3,3′,5,5′-tetramethylbenzidine) reagent (KPL) at room temperature for 30 minutes, the reaction was stopped by adding 50 μl of 0.1 N sulfuric acid and the absorbance at 450 nm was measured with a microplate reader. […]
On the technique in general: An ELISA detects its analyte on a solid surface through an enzyme-linked reagent.

The subject of the next data set is Sprague-Dawley rats. The data set can be described thus: Echocardiography 3 weeks after co-transfection of rOSF-2 plasmid and antisense/sense/scramble nucleotides into the rat heart. The data set is classed as in vivo. The note with it: 3 weeks post transfection; for EDV: end-diastolic volume / ESV: end-systolic volume / FS: fractional shortening of the inner diameter of the left ventricle / IVPWD / IVSTD: thickness of the end-diastolic interventricular septum / LVIDD: inner diameter of the end-diastolic left ventricle / LVIDS: inner diameter of the end-systolic left ventricle / LVPWS: thickness of the posterior wall of the end-systolic left ventricle / TVSTS: echocardiography, nucleotides co-injected with rOSF-2 plasmid. As to the method: HVJ-liposomes were prepared as described in Example 6 by adding 50 μl of HMG-1,-2 mixture (1 mg/ml, Wako Pure Chemical Industries) to 200 μg of the plasmid solution prepared in Example 6.1 and 1.4 mg of the antisense nucleotide solution selected in Example 7. Sense and scramble nucleotide sequences were also prepared in the same manner.
The HVJ-liposome/DNA solution was injected into the left ventricle of the heart (apical and lateral sites) of 13-weeks old Sprague-Dawley rats (male) in an amount of 100 μl each at 3 sites (a total volume of 300 μl) using a 30-gauge needle (rOSF-2/antisense group, rOSF-2/sense group and rOSF-2/scramble group). Similarly, pcDNA4/rOSF-2 was injected as a positive control group and pcDNA4/His-Myc vector was injected as a negative control group.
After anesthesia with ketamine (50 mg/ml) and xylazine (10 mg/ml) at 3 weeks post transfection, echocardiography was performed using Core Vision Pro SSA 350A (probe: 7 MHz, Toshiba).

`Nc1nc(Cl)nc2c1ncn2[C@@H]1O[C@H](COP(=O)([O-])OP(=O)([O-])OP(=O)([O-])[O-])[C@@H](O)[C@H]1O.[Na+].[Na+].[Na+].[Na+]` [2-chloroadenosine 5′-triphosphate tetrasodium]: the “expression of OSF-2 mRNA (standardized by GAPDH mRNA)” value in the data set with OSF-2 mRNA is “inhibited the expression of OSF-2 mRNA”. In addition, in the data set on OSF-2 promoter, the luciferase activity result is reported as “inhibit luciferase activity specifically to OSF-2 promoter”.

Turning to `Cc1ccccc1CNc1ncnc2c1ncn2[C@@H]1O[C@H](CO)[C@@H](O)[C@H]1O` [Metrifudil, N-[(2-methylphenyl)methyl]-adenosine], the “expression of OSF-2 mRNA (standardized by GAPDH mRNA)” value with OSF-2 mRNA is given as “inhibited the expression of OSF-2 mRNA”. The luciferase activity entry in the data set on OSF-2 promoter is recorded as “inhibit luciferase activity specifically to OSF-2 promoter”.

In the case of “SEQ ID NO: 12: phosphorothioate antisense nucleotide sequence containing the initiation codon region of rat OSF-2; the one selected in Example 7 (AGGAACCATCTTCAGCCCTG; all phosphorothioate, sugars by position and methylation of C not given here)”, the survival rate with Dahl-S rats turned out to be 100%. Further, the “inhibitory activity against OSF-2 protein production” value in data set [1] (final concentration 10 nM, FIG. 3) is “stronger inhibitory activity against OSF-2 protein production than the sense and scramble nucleotide sequences”. Moreover, the “inhibitory activity against OSF-2 protein production” value in data set [1] (final concentration 100 nM, 3 days, FIG. 2) is on record as “inhibited the expression the most strongly”. Moreover, in the data set on Sprague-Dawley rats, the “cardiac dilatation (LVIDD, LVIDS vs. positive control, sense and scramble groups)” value is on record as “inhibited cardiac dilatation”; the “EDV: end-diastolic volume” value came out at 210.0 ± 6.8 µL; the “ESV: end-systolic volume” value is 43.3 ± 5.1 µL; the “FS: fractional shortening of the inner diameter of the left ventricle” value (shortened to “FS: fractional shortening”) is listed as 49.5 ± 1.7%. Further, in the data set with Sprague-Dawley rats, the IVPWD is 2.20 ± 0.13 mm, the “IVSTD: thickness of the end-diastolic interventricular septum” value (shortened to “IVSTD: thickness”) was determined as 1.68 ± 0.12 mm, the “LVIDD: inner diameter of the end-diastolic left ventricle” value (“LVIDD: inner diameter” below) was 6.42 ± 0.09 mm and the “LVIDS: inner diameter of the end-systolic left ventricle” value (“LVIDS: inner diameter” for short) worked out at 3.25 ± 0.15 mm. In the data set with Sprague-Dawley rats, the “LVPWS: thickness of the posterior wall of the end-systolic left ventricle” value (“LVPWS: thickness” below) is 2.80 ± 0.17 mm and the TVSTS is listed as 3.07 ± 0.16 mm.

As for “scramble: scramble nucleotide sequence with the 5′, 3′ direction reversed to SEQ ID NO: 12 (GTCCCGACTTCTACCAAGGA; listed as DNA, chemistry not given here)”, in the data set with Sprague-Dawley rats, the “EDV: end-diastolic volume” value is 307.6 ± 10.4 µL, the “ESV: end-systolic volume” value is 73.4 ± 7.5 µL, the “FS: fractional shortening” value worked out at 46.7 ± 1.6% and the IVPWD came to 1.68 ± 0.07 mm. In addition, in the data set on Sprague-Dawley rats, the “IVSTD: thickness” value is given as 1.26 ± 0.12 mm, the “LVIDD: inner diameter” value stood at 7.60 ± 11 mm, the “LVIDS: inner diameter” value amounted to 4.06 ± 0.18 mm and the “LVPWS: thickness” value is recorded as 2.66 ± 0.07 mm. In the data set on Sprague-Dawley rats, the TVSTS came to 2.60 ± 0.15 mm.

In the case of “sense: sense nucleotide sequence that is a sense strand corresponding to SEQ ID NO: 12 (CAGGGCTGAAGATGGTTCCT; listed as DNA, chemistry not given here)”, in the data set on Dahl-S rats, the survival rate was found to be 61.5%. In the data set on Sprague-Dawley rats, the “EDV: end-diastolic volume” value stood at 339.2 ± 17.9 µL, the “ESV: end-systolic volume” value turned out to be 82.4 ± 10.2 µL, the “FS: fractional shortening” value was 46.7 ± 1.6% and the IVPWD is listed as 1.46 ± 0.11 mm. For the same compound, in the data set on Sprague-Dawley rats, the “IVSTD: thickness” value is 1.26 ± 0.07 mm, the “LVIDD: inner diameter” value is reported as 7.93 ± 0.18 mm, the “LVIDS: inner diameter” value turned out to be 4.24 ± 0.22 mm and the “LVPWS: thickness” value is reported as 2.30 ± 0.15 mm. Also, the TVSTS in the data set on Sprague-Dawley rats was found to be 2.50 ± 0.07 mm.
